Assay results published in EP0247971A2, “Novel pharmaceutical compositions comprising and use of cis-6-(4-acetanilido)-8,9-dimethoxy-2-methyl-1,2,3,4,4a,10b-hexahydrobenzo[c][1,6]naphthyridin” (SANDOZ AG, priority 1986, dated 1987).
Read-outs that look alike come from different tables or passages of the source.

Legend:
[1] = tested on: guinea-pig tracheal ring preparations; assay: Bronchospasmolytic activity in vitro, isolated guinea-pig trachea; assay type: cell-based; conditions: for IC50: guinea-pig tracheal rings, one series of tests
Method: The trachea is excised from freshly sacrificed guinea-pigs and transected in the transverse plane to give rings of tissue of ca. 2 mm. Individual rings are mounted vertically on stainless steel supports, one of which is fixed at the base of an organ bath, the other being attached to a tension transducer. The rings are bathed in modified Tyrode solution at 37°C and gassed with O2/CO2 (95:5, v/v). Rings prepared in this manner, preloaded with 1 g, generate spontaneous tone and, after a period of equilibration, relax on addition of spasmolytic drugs. Tension can be enhanced by addition of carbachol (10-^6M) or histamine (10-^4M). To ascertain spasmolytic activity, test substances are dissolved in physiological saline and added in increasing quantities to the organ bath at 5 min. intervals to provide a cumulative concentration-effect curve.

Conscious guinea-pigs = assay: Inhibition of acetylcholine-mist bronchoconstriction following pulmonary administration; assay type: in vivo; conditions: inhalation of mist 10 mins. prior to 0.3% mist of acetylcholine
Method: Conscious guinea-pigs are subjected to inhalation of COMPOUND or placebo (vehicle) 10 mins. prior to explosure to a 0.3% mist of acetylcholine. COMPOUND is administered as a mist generated from COMPOUND in aqueous solution at concentrations of from 1 mg/ml to 0.001 mg/ml, using a jet nebuliser. Prolongation of time prior to collapse in treated groups as compared with placebo groups is taken as a measure of bronchodilator efficacy.

Guinea-pigs [2] = assay: Suppression of airways hyperreactivity, PAF-treated animals; assay type: in vivo
Method: Guinea-pigs are anaesthetised and prepared for recording of lung function as described under example lb^l above. Intravenous injection of low dose bombesin (240 ng/kg) establishes airways sensitivity to spasmogens. Following infusion of PAF over lhr. […] Induction of airways hyperreactivity by PAF is a platelet-dependent phenomenon and development of. airways hyperreactivity in this model in paralleled by observed accumulation of platelets within the thorax.

dogs = assay: 30-week oral administration toxicity, dogs; assay type: in vivo
Method: (§1) 30-week oral administration of (±)-COMPOUND to rats and dogs indicate no toxicity at dosages up to 272 mg/kg/day in rats and up to 10 mg/kg/day in dogs. (±)-COMPOUND is found to have no embryolethal or teratogenic actions in the rat at dosages up to 300 mg/kg and in the rabbit at dosages up to 30 mg/kg.

rats = assay: 30-week oral administration toxicity, rats; assay type: in vivo
Method: as §1

Guinea pigs [3] = assay: Suppression of airways hyperreactivity, sensitised animals (immune complexes); assay type: in vivo
From the text: Guinea pigs are anaesthetised and airways resistance and compliance recorded as described under example lb^l above. […] Platelets are isolated and labelled with ^lllindium prior to intravenous infusion. Platelet accumulation is monitored by external crystal detectors [c.f. Morley et al. […] Allergic reaction is initiated by i.v. injection of preformed immune complexes (bovine y-globulin/ anti-bovine y-globulin), using a dose that is scarcely sufficient to induce bronchospasm at the first injection. By repeating the dose at regular (10 min.) intervals, bronchospasm of progressively increasing amplitude is evidenced. This effect is paralleled by an incremental retention of platelets within the airway vasculature. Following the last dose of immune complexes, the dose-effect relationship to histamine is re-defined. In animals so treated, induction of airways hyperreactivity is consistently observed.

Guinea-pigs [4] = assay: Reversal of bombesin-induced bronchospasm in vivo; conditions: i.v. at the height of bronchospasm induced by bombesin (ca. 500 ng/kg); one series of tests; of the order of
Method: (§2) Guinea pigs are anaesthetised with pentobarbital (30 mg/kg i.p.) and phenobarbital (100 mg/kg i.p.) and ventilated via a tracheal cannula (10 ml/kg, lHz). Ventilation is monitored either by a pressure transducer measuring air-flow (Konzett-Rossler method), or by a Fleisch flow transducer in line with the inspiratory circuit. When making measurements of flow, coincident pressure changes in the thorax are monitored directly via an intrathoracic trochar, permitting display of differential pressure relative to the trachea. From this information resistance and compliance are calculated at each inspiration. Test substance is, administered via an indwelling cannula within a jugular vein. Blood pressure is monitored at the carotid artery. Test substance is administered immediately before injection of a bronchoconstrictor agent - PAF (56 ng/kg), acetylcholine (32 µg/kg), histamine(10 µg/kg), serotonin (10 µg/kg), substance P ([…]) or leukotriene C4 (5 µg/kg).
Guinea-pigs are prepared for measurement of resistance and compliance as under lb^l above. Intravenous injection of bombes in (ca. 500 ng/kg) as a bolus, induces increased airways resistance which is sustained over a period of several minutes. Capacity of test-substance to reverse response when administered i.v. at the height of bombesin-induced bronchospasm serves as a measure of efficacy in reversing established bronchospasm.

rabbit = assay: Embryolethal or teratogenic actions, rabbit; assay type: in vivo
Method: as §1

[5] = tested on: guinea-pig peritoneal cavity; assay: Influence on eosinophil accumulation in the peritoneal cavity in vivo
Method: Effect of test-substance is conveniently determined by measurement of influence on PAF-induced eosinophil accumulation in the guinea-pig peritoneal cavity in vivo. In the guinea-pig, there is a substantial (up to 40%) resident population of eosinophils in the peritoneal cavity and eosinophil accumulation in the peritoneal cavity relative to control animals ca. 24 - 48 hrs. following injection of PAF i.p. at dosages of ca. 10µg/kg.
To esablish eosinophil accumulation, test animals receive 10µg/kg PAF i.p., 2 days prior to sacrifice. Smears from the peritoneal cavity are prepared employing Leishman's Stain after fixation with 95% methanol. At least 500 white cells are differentiated for each estimation. Test substance is administered s.c. via a minipump for four days prior to sacrifice.

rat = assay: Embryolethal or teratogenic actions, rat; assay type: in vivo
Method: as §1

Guinea pigs [6] = assay: Inhibition of bronchospasm in vivo (Konzett-Rossler preparation); conditions: dosages of the order of 1 mg/kg via jugular vein immediately before PAF, acetylcholine, histamine, serotonin, substance P or leukotriene C4
Method: as §2

healthy trial volunteers = assay: Tolerability and safety in healthy trial volunteers; assay type: in vivo, humans
[7] = tested on: subjects exhibiting heart insufficiency; assay: Tolerability and safety in subjects exhibiting heart insufficiency; assay type: in vivo, humans
[8] = intravenous dosages of up to 100 mg by perfusion over 10 mins.

Structure (SMILES): COc1cc2c(cc1OC)[C@@H]1CN(C)CC[C@@H]1N=C2c1ccc(NC(C)=O)cc1 (racemic) [(±)-COMPOUND, cis-6-(4-acetanilido)-8,9-dimethoxy-2-methyl-1,2,3,4,4a,10b-hexahydrobenzo[c][1,6]naphthyridin]
- relaxant action on tracheal rings from animals desensitised to β2-agonist therapy ([1]; animals with prolonged exposure to high-dose isoprenaline in vivo): not influenced
- IC50 ([1]; carbachol (10-^6M), read-out: IC50 values for inhibition of contraction due to carbachol): 5.8 µM
- IC50 ([1]; histamine (10-^4M), read-out: IC50 values for inhibition of contraction due to histamine): 1.7 µM
- IC50 ([1]; spontaneous tone, read-out: IC50 values for inhibition of spontaneous tone): 3.2 µM
- relaxant action in the presence of propanolol ([1]; propanolol (1 uM)): undiminished
- amount introduced into the exposure chamber giving detectable protection against bronchospasm (Conscious guinea-pigs): ≥ 2 µg
- thoracic platelet accumulation in response to PAF (Guinea-pigs [2]; 1 mg/kg bolus and infusion at 1 mg/kg/hr i.v.): inhibited
- dosage giving suppression of airways hyperreactivity induction (Guinea-pigs [2]; advance administration i.v., ca., PAF infusion 600 ng/kg, bombesin 240 ng/kg): ≥ 0.1 mg/kg
- ID50, suppression of airways hyperreactivity induction (Guinea-pigs [2]; i.v., one series of tests, of the order of): ~1 mg/kg
- dosages with no toxicity (dogs): up to 10 mg/kg/day
- dosages with no toxicity (rats): up to 272 mg/kg/day
- dosage giving suppression of induced airways resistance (Guinea pigs [3]; advance administration i.v., ca., compared with untreated controls): ≥ 1 mg/kg
- effective dose, inhibition of airways hyperreactivity (Guinea pigs [3]; one test series): 0.35 mg/kg
- ID50 values, abrogation of bombesin-induced bronchospasm (Guinea-pigs [4]): 0.08 to 0.48 mg/kg
- dosages with no embryolethal or teratogenic actions (rabbit): up to 30 mg/kg
- PAF-induced eosinophil accumulation ([5]; of the order of 2 mg/kg/day s.c. via minipump for four days, animals receiving 10µg/kg PAF i.p.): inhibition of eosinophil accumulation
- resident eosinophil population ([5]; of the order of 10 mg/kg/day s.c. via minipump for four days, non-PAF-treated animals, vs untreated controls): decrease
- dosages with no embryolethal or teratogenic actions (rat): up to 300 mg/kg
- constrictor response to bronchoconstrictor agents (Guinea pigs [6]): strongly inhibits
- tolerability (healthy trial volunteers; 600 mg once daily for 3 days (6 subjects)): well tolerated
- single oral dosages with no occurrence of side effects or relevant changes in laboratory parameters (healthy trial volunteers; healthy trial volunteers (27 subjects)): up to 800 mg
- arterial pressure [7, 8]: light fall
- heart frequency [7, 8]: increase
- intravenous dosages well tolerated ([7]; perfusion over 10 mins., subjects exhibiting heart insufficiency): up to 100 mg
- systolic blood-pressure ([7]; placebo controlled trials, after 60 mins.): light increase
- heart frequency ([7]; placebo controlled trials, oral): no relevant change
- oral dosages with no significant side effects, well tolerated ([7]; subjects exhibiting heart insufficiency, oral): up to 600 mg
